Here are results for 2 molecules from patent publication US20130253179A1, “Functionalization Processes and Reactants Used in Such Processes Using an Isatoic Anhydride or a Derivative Thereof, Biological Molecules Thus Treated and Kits” (priority 2010, published 2013).

The test system of assay [1] is ORN with 27 bases in mixture with an ODN with 27 bases. Description: Selective functionalisation, capture, cleaving and elution of an ORN from an ORN/ODN mixture (HPLC 260 nm). Conditions: injection 2, after two functionalisation/precipitation steps, 65° C. 1 h. Here is the method:
We have a 27-mer ODN (Eurogentec ref. 21438-DNA batch #2177673, Sequence: 5′-AAC-CGC-AGT-GAC-ACC-CTC-ATC-ATT-ACA-3′) in 650 μM solution in water, and a 27-mer ORN (Eurogentec ref. 21437-RNA batch #2177672, Sequence: 5′-AAC-CGC-AGU-GAC-ACC-CUC-AUC-AUU-ACA-3′) in 952 μM solution in water. 15.4 μL of ODN and 17.5 μL of ORN are mixed and topped up with 67.1 μL of ultrapure water.
80 μL of the mixture (8 nmoles) are evaporated until dry and taken up in: 10 μL of water, 5 μL of isatoic anhydride Biot PEG4(SS)IA Me (24); […]), in 480 mM DMF solution, and 5 μL of Triethyl ammonium acetate buffer in 1 M solution in water. The medium is placed in the oven at 65° C. for one hour.
The medium is then subjected to a triple precipitation with lithium perchlorate LiClO4 and with acetone, in order to free it from the residual BiotPEG4 (SS) IA Me: 18 μL of LiClO4 in 3M solution in water and 262 μL of water are added to the medium. After vortex stirring, 900 μL of acetone are added, then the medium is agitated once again and centrifuged (5 minutes at 13,000 rpm at ambient temperature). The supernatant is then removed carefully and the same method is repeated twice more with 18 μL of LiClO4 and 282 μL of water. Finally, the medium is washed with 900 μL of acetone before stirring and centrifuging. The greater part of the supernatant is removed carefully before drying in the rotary evaporator. […]

Assay [2] relates to in vitro RNA transcripts (IVT). Description: Functionalisation of in vitro RNA transcripts, Cy3 and RNA assay, DoL (Degree of Labelling). Type of assay: biochemical, human. The procedure: The in vitro transcripts are generated in the same way as described in example 8. In this example, we have used four concentrations of functionalisation molecule Cy3 IA Me (13) in order to determine the most appropriate concentration for detection of the most sensitive functionalised IVTs.
6 μg of in vitro transcripts are taken up in a total volume of 20 μL of a 10 mM solution of Zn(OAc)2 pH 6.5. The solution is incubated for 15 min at 70° C. in order to partially fragment the RNA until a majority of fragments are obtained which are of a size between 25 and 200 bases. After this incubation, the solution is immediately put into ice.
11 μL of the transcript solution is mixed with 4 μL of a 500 mM solution of NaHCO3 pH 8-8.5, and with 5 μL of a 120, 240, 360 or 480 mM solution of Cy3 IA Me (13) in DMSO, to obtain 30, 60, 90 or 120 mM solutions of functionalisation reagent, respectively. These solutions are incubated at 65° C. for one hour.
The excess of functionalisation reagent as well as that of the different salts are eliminated by isopropanol precipitation then by acetone precipitation. To do this, 6 μL of 3M sodium acetate (i.e. 30% by volume) and 14 μL of isopropanol (i.e. 70% by volume) are added to the functionalisation solution. Vortex stirring is performed and centrifuging is performed for 30 mins at 14,000 rpm (20,800 g) at 4° C. The supernatant is eliminated and then the pellet is rinsed with 50 μL of 70% ethanol. Centrifuging is carried out again for 15 mins at 14,000 rpm (20,800 g) at 4° C., and the supernatant is eliminated.
280 μL of water, 18 μL of 3M LiClO4 and 900 μL of acetone are added to the pellet. Vortex stirring is performed, centrifuging is performed and the supernatant is eliminated. Next, 280 μL of water, 18 μL of 3M LiClO4 and 900 μL of acetone are added to the pellet. Vortex stirring is performed, centrifuging is performed and the supernatant is eliminated. The pellet is rinsed with 50 μL of 70% ethanol and then centrifuging is carried out for 15 mins at 14,000 rpm (20,800 g) at 4° C. The supernatant is eliminated, and the pellet is dried under vacuum with the rotary evaporator before the pellet is taken up in 20 μL of water (i.e. [in vitro transcripts]theoretical=[…]).
In order to determine the quantity of functionalised in vitro transcripts recovered after these different treatments, 1.2 μl of each end solution are assayed by UV spectrophotometry at 260 nm (Nanodrop 100, Thermo Scientific Waltham, USA). An assay is also carried out at 550 nm in order to learn the Cy3 functionalisation rate of the in vitro transcripts (% of Cy3 molecules per 100 nucleosides). This value is also known under the name DoL (Degree of Labelling) and is calculated with the following equation: DoL (in %)=100×(340×[Cy3])/(1000×[RNA]). […]

For `Cn1c(=O)oc(=O)c2cc(NC(=O)CCSSCCNC(=O)CCOCCOCCOCCOCCNC(=O)CCCCC3SCC4NC(=O)NC43)ccc21` (centres unmarked) [5Biot PEG4 SS IA Me 24], the “initial ORN functionalised” value in assay [1] was found to be 95%.

Regarding `CCN1/C(=C\C=C\C2=[N+](CCCCCC(=O)Nc3ccc4c(c3)c(=O)oc(=O)n4C)c3ccc(S(=O)(=O)[O-])cc3C2(C)C)C(C)(C)c2cc(S(=O)(=O)[O-])ccc21.[K+]` [Cy3 IA Me 13, 1-methyl 5-Cy3-isatoic anhydride], the DoL is 0.8% in assay [2] (30 mM compound in the solution), 1.7% in assay [2] (60 mM compound in the solution), 2% in assay [2] (90 mM compound in the solution) and 2.7% in assay [2] (120 mM compound in the solution).
